Like-named read-outs stand apart in the source and are kept apart here.
Tests used:
barnyardgrass [1] = assay: Test B pre-/postemergence herbicide test; format: in vivo, Echinochloa crus-galli; conditions: for Barnyardgrass plant response rating: postemergence
Outline: (§1)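 Pre: seeds sown, then sprayed. Post: 1–4-leaf plants (2–18 cm) sprayed at the same time. Paddy: flooded, treated at 2-leaf stage. Formulation: non-phytotoxic solvent with surfactant. Greenhouse 13–15 days; visual 0–100 score relative to controls.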

Surinam grass = assay: Test B pre-/postemergence herbicide test; format: in vivo, Urochloa decumbens; conditions: for Surinam Grass plant response rating: postemergence
Outline: (§2)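 Evaluation is visual, comparing treated with control plants on a scale where 0 means no effect and 100 means full control. Treatments were preemergence, or postemergence on seedlings 2–18 cm tall, and held 13–15 days in the greenhouse.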

cocklebur = assay: Test B pre-/postemergence herbicide test; format: in vivo, Xanthium strumarium; conditions: for Cocklebur plant response rating: postemergence
Outline: as §1

corn = assay: Test B pre-/postemergence herbicide test; format: in vivo, Zea mays; conditions: for Corn plant response rating: postemergence
Outline: as §2

large crabgrass = assay: Test B pre-/postemergence herbicide test; format: in vivo, Digitaria sanguinalis; conditions: for Crabgrass, Large plant response rating: postemergence
Outline: as §2

lambsquarters = assay: Test B pre-/postemergence herbicide test; format: in vivo, Chenopodium album; conditions: for Lambsquarters plant response rating: postemergence
Outline: as §2

morningglory = assay: Test B pre-/postemergence herbicide test; format: in vivo, Ipomoea coccinea; conditions: for Morningglory plant response rating: postemergence
Outline: as §1

pigweed = assay: Test B pre-/postemergence herbicide test; format: in vivo, Amaranthus retroflexus; conditions: for Pigweed plant response rating: postemergence
Outline: as §2

velvetleaf = assay: Test B pre-/postemergence herbicide test; format: in vivo, Abutilon theophrasti; conditions: for Velvetleaf plant response rating: postemergence
Outline: as §2

blackgrass = assay: Test B postemergence herbicide test; format: in vivo, Alopecurus myosuroides; conditions: for Blackgrass plant response rating: postemergence
Outline: (§3)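 Read-out: visual comparison with controls, scored 0 to 100, where 100 means complete control and 0 no effect. Formulated chemicals were applied postemergence to plants 2–18 cm tall (1- to 4-leaf), or to flooded-paddy plants at the 2-leaf stage, then held 13 to 15 days under glass.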

wheat = assay: Test B postemergence herbicide test; format: in vivo, Triticum aestivum; set-up: key to Wheat plant response rating: 0 = no effect, 100 = complete control; conditions: for Wheat plant response rating: postemergence
Outline: (§4)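 Postemergence plants were sprayed with formulated test chemicals at 2 to 18 cm height (1- to 4-leaf stage); paddy species were grown to the 2-leaf stage. After 13 to 15 days in a greenhouse, injury was rated visually against untreated controls on a 0–100 scale (0 = no effect, 100 = complete control).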

wild oat = assay: Test B postemergence herbicide test; format: in vivo, Avena fatua; conditions: for Oat, Wild plant response rating: postemergence
Outline: as §4

rice = assay: Test B flooded paddy test; format: in vivo, Oryza sativa; conditions: 1000 g ai/ha, scale 0 to 100 (0 no effect, 100 complete control)
Outline: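 Each value is a visual 0–100 response rating taken against controls 13 to 15 days after treatment in the greenhouse. Plants received formulated chemical postemergence at the 1- to 4-leaf stage or, in flooded paddy, at the 2-leaf stage.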

[2] = system: small flower umbrella sedge; assay: Test B flooded paddy test; format: in vivo, Cyperus difformis; conditions: 1000 g ai/ha, scale 0 to 100 (0 no effect, 100 complete control)
Outline: as §3

ducksalad = assay: Test B flooded paddy test; format: in vivo, Heteranthera limosa; conditions: 1000 g ai/ha, scale 0 to 100 (0 no effect, 100 complete control)
Outline: as §3

barnyardgrass [3] = assay: Test B flooded paddy test; format: in vivo, Echinochloa crus-galli; conditions: 1000 g ai/ha, scale 0 to 100 (0 no effect, 100 complete control)
Outline: as §3

[4] = Postemergence, 500 g ai/ha, visual rating after 13 to 15 days, scale 0 (no effect) to 100 (complete control)
[5] = 125 g ai/ha, 0 = no effect, 100 = complete control, preemergence
[6] = 125 g ai/ha, visual rating, scale 0 (no effect) to 100 (complete control)
[7] = 500 g ai/ha, visual rating, 0 = no effect, 100 = complete control, preemergence
[8] = 500 g ai/ha, scale 0 to 100, 0 is no effect, 100 is complete control

CCNC(=O)c1ccc(F)c(NC(=O)c2cc(C(C)(C)C)nn2CC)c1 [Compound 2, 3-(1,1-dimethylethyl)-1-ethyl-N-[5-[(ethylamino)carbonyl]-2-fluorophenyl]-1H-pyrazole-5-carboxamide]
pest or weed control at 125 g/ha (barnyardgrass [1]; Echinochloa crus-galli, post-emergence, Postemergence, 125 g ai/ha, scale 0 (no effect) to 100 (complete control), read-out: Barnyardgrass plant response rating): 30%
pest or weed control at 500 g/ha (barnyardgrass [1]; Echinochloa crus-galli, post-emergence, Postemergence, 500 g ai/ha, visual rating after 13 to 15 days, scale 0 (no effect) to 100 (complete control), read-out: Plant response rating, Barnyardgrass): 70%
pest or weed control at 500 g/ha (barnyardgrass [1]; Echinochloa crus-galli, pre-emergence, Preemergence, 500 g ai/ha, scale 0 to 100, read-out: Barnyardgrass plant response rating): 100%
pest or weed control at 125 g/ha (Surinam grass; Urochloa decumbens, post-emergence, Postemergence, 125 g ai/ha, scale 0 (no effect) to 100 (complete control), read-out: Surinam Grass plant response rating): 20%
pest or weed control at 500 g/ha (Surinam grass; Urochloa decumbens, post-emergence, Postemergence, 500 g ai/ha, visual rating after 13 to 15 days, scale 0 (no effect) to 100 (complete control), read-out: Plant response rating, Surinam Grass): 50%
pest or weed control at 500 g/ha (Surinam grass; Urochloa decumbens, pre-emergence, Preemergence, 500 g ai/ha, scale 0 to 100, read-out: Surinam Grass plant response rating): 100%
pest or weed control at 125 g/ha (cocklebur; Xanthium strumarium, post-emergence, Postemergence, 125 g ai/ha, scale 0 (no effect) to 100 (complete control), read-out: Cocklebur plant response rating): 50%
pest or weed control at 500 g/ha (cocklebur; Xanthium strumarium, post-emergence, Postemergence, 500 g ai/ha, visual rating after 13 to 15 days, scale 0 (no effect) to 100 (complete control), read-out: Plant response rating, Cocklebur): 80%
pest or weed control at 500 g/ha (cocklebur; Xanthium strumarium, pre-emergence, Preemergence, 500 g ai/ha, scale 0 to 100, read-out: Cocklebur plant response rating): 90%
plant injury at 125 g/ha (corn; Zea mays, post-emergence, Postemergence, 125 g ai/ha, scale 0 (no effect) to 100 (complete control), read-out: Corn plant response rating): 20%
Corn plant response rating (crop injury, 0 = no effect, 100 = complete kill) at 500 g/ha (corn; Zea mays, post-emergence, Postemergence, 500 g ai/ha, visual rating after 13 to 15 days, scale 0 (no effect) to 100 (complete control)): 20%
plant injury at 500 g/ha (corn; Zea mays, pre-emergence, Preemergence, 500 g ai/ha, scale 0 to 100, read-out: Corn plant response rating): 80%
pest or weed control at 125 g/ha (large crabgrass; Digitaria sanguinalis, post-emergence, Postemergence, 125 g ai/ha, scale 0 (no effect) to 100 (complete control), read-out: Crabgrass, Large plant response rating): 20%
pest or weed control at 500 g/ha (large crabgrass; Digitaria sanguinalis, post-emergence, Postemergence, 500 g ai/ha, visual rating after 13 to 15 days, scale 0 (no effect) to 100 (complete control), read-out: Plant response rating, Crabgrass, Large): 30%
pest or weed control at 500 g/ha (large crabgrass; Digitaria sanguinalis, pre-emergence, Preemergence, 500 g ai/ha, scale 0 to 100, read-out: Crabgrass, Large plant response rating): 100%
pest or weed control at 125 g/ha (lambsquarters; Chenopodium album, post-emergence, 336 h, Postemergence, 125 g ai/ha, scale 0 (no effect) to 100 (complete control), read-out: Lambsquarters plant response rating): 80%
pest or weed control at 500 g/ha (lambsquarters; Chenopodium album, post-emergence, 336 h, Postemergence, 500 g ai/ha, visual rating after 13 to 15 days, scale 0 (no effect) to 100 (complete control), read-out: Plant response rating, Lambsquarters): 90%
pest or weed control at 500 g/ha (lambsquarters; Chenopodium album, pre-emergence, 336 h, Preemergence, 500 g ai/ha, scale 0 to 100, read-out: Lambsquarters plant response rating): 100%
pest or weed control at 125 g/ha (morningglory; Ipomoea, post-emergence, 336 h, Postemergence, 125 g ai/ha, scale 0 (no effect) to 100 (complete control), read-out: Morningglory plant response rating): 30%
pest or weed control at 500 g/ha (morningglory; Ipomoea, post-emergence, 336 h, Postemergence, 500 g ai/ha, visual rating after 13 to 15 days, scale 0 (no effect) to 100 (complete control), read-out: Plant response rating, Morningglory): 70%
pest or weed control at 500 g/ha (morningglory; Ipomoea, pre-emergence, 336 h, Preemergence, 500 g ai/ha, scale 0 to 100, read-out: Morningglory plant response rating): 90%
pest or weed control at 125 g/ha (pigweed; Amaranthus retroflexus, post-emergence, 336 h, Postemergence, 125 g ai/ha, scale 0 (no effect) to 100 (complete control), read-out: Pigweed plant response rating): 60%
pest or weed control at 500 g/ha (pigweed; Amaranthus retroflexus, post-emergence, 336 h, Postemergence, 500 g ai/ha, visual rating after 13 to 15 days, scale 0 (no effect) to 100 (complete control), read-out: Plant response rating, Pigweed): 70%
pest or weed control at 500 g/ha (pigweed; Amaranthus retroflexus, pre-emergence, 336 h, Preemergence, 500 g ai/ha, scale 0 to 100, read-out: Pigweed plant response rating): 100%
pest or weed control at 125 g/ha (velvetleaf; Abutilon theophrasti, post-emergence, 336 h, Postemergence, 125 g ai/ha, scale 0 (no effect) to 100 (complete control), read-out: Velvetleaf plant response rating): 20%
pest or weed control at 500 g/ha (velvetleaf; Abutilon theophrasti, post-emergence, 336 h, Postemergence, 500 g ai/ha, visual rating after 13 to 15 days, scale 0 (no effect) to 100 (complete control), read-out: Plant response rating, Velvetleaf): 50%
pest or weed control at 500 g/ha (velvetleaf; Abutilon theophrasti, pre-emergence, 336 h, Preemergence, 500 g ai/ha, scale 0 to 100, read-out: Velvetleaf plant response rating): 100%
pest or weed control at 125 g/ha (blackgrass; Alopecurus myosuroides, post-emergence, 336 h, Postemergence, 125 g ai/ha, scale 0 (no effect) to 100 (complete control), read-out: Blackgrass plant response rating): 10%
Plant response rating, Blackgrass (blackgrass; [4]): 30
Plant response rating, Wheat (wheat; [4]): 20
plant injury at 125 g/ha (wheat; Triticum aestivum, post-emergence, 336 h, Postemergence, 125 g ai/ha, scale 0 (no effect) to 100 (complete control), read-out: Wheat plant response rating): 20%
pest or weed control at 125 g/ha (wild oat; Avena fatua, post-emergence, 336 h, Postemergence, 125 g ai/ha, scale 0 (no effect) to 100 (complete control), read-out: Oat, Wild plant response rating): 20%
Plant response rating, Oat, Wild (wild oat; [4]): 30
plant injury at 1000 g/ha (rice; Oryza sativa, 336 h, visual rating, 13 to 15 days, read-out: Rice plant response rating): 70%
pest or weed control at 1000 g/ha ([2]; Cyperus difformis, 336 h, visual rating, 13 to 15 days, read-out: Sedge, Umbrella plant response rating): 90%
pest or weed control at 1000 g/ha (ducksalad; Heteranthera limosa, 336 h, visual rating, 13 to 15 days, read-out: Ducksalad plant response rating): 90%
pest or weed control at 1000 g/ha (barnyardgrass [3]; Echinochloa crus-galli, 336 h, visual rating, 13 to 15 days, read-out: Barnyardgrass plant response rating): 90%

CCc1nn(C(C)(C)C)cc1C(=O)Nc1cc(C(=O)N(C)C)ccn1 [Compound 293]
Barnyardgrass plant response rating (0 to 100 scale) (barnyardgrass [1]; [5]): 90
Barnyardgrass plant response rating (barnyardgrass [1]; [6]): 0
Plant response rating, Barnyardgrass (barnyardgrass [1]; [7]): 100
Barnyardgrass plant response rating (barnyardgrass [1]; [8]): 10
Surinam Grass plant response rating (0 to 100 scale) (Surinam grass; [5]): 90
Surinam Grass plant response rating (Surinam grass; [6]): 10
Plant response rating, Surinam Grass (Surinam grass; [7]): 100
Surinam Grass plant response rating (Surinam grass; [8]): 20
Cocklebur plant response rating (0 to 100 scale) (cocklebur; [5]): 60
Cocklebur plant response rating (cocklebur; [6]): 20
Plant response rating, Cocklebur (cocklebur; [7]): 90
Cocklebur plant response rating (cocklebur; [8]): 30
Corn plant response rating (0 to 100 scale) (corn; [5]): 70
Corn plant response rating (corn; [6]): 10
Plant response rating, Corn (corn; [7]): 100
Corn plant response rating (corn; [8]): 30
Crabgrass, Large plant response rating (0 to 100 scale) (large crabgrass; [5]): 100
Crabgrass, Large plant response rating (large crabgrass; [6]): 0
Plant response rating, Crabgrass, Large (large crabgrass; [7]): 100
Crabgrass, Large plant response rating (large crabgrass; [8]): 20
Lambsquarters plant response rating (0 to 100 scale) (lambsquarters; [5]): 80
Lambsquarters plant response rating (lambsquarters; [6]): 50
Plant response rating, Lambsquarters (lambsquarters; [7]): 100
Lambsquarters plant response rating (lambsquarters; [8]): 70
Morningglory plant response rating (0 to 100 scale) (morningglory; [5]): 40
Morningglory plant response rating (morningglory; [6]): 30
Plant response rating, Morningglory (morningglory; [7]): 100
Morningglory plant response rating (morningglory; [8]): 70
Pigweed plant response rating (0 to 100 scale) (pigweed; [5]): 10
Pigweed plant response rating (pigweed; [6]): 10
Plant response rating, Pigweed (pigweed; [7]): 100
Pigweed plant response rating (pigweed; [8]): 40
Velvetleaf plant response rating (velvetleaf; [6]): 10
Plant response rating, Velvetleaf (velvetleaf; [7]): 100
Velvetleaf plant response rating (velvetleaf; [8]): 30
Blackgrass plant response rating (blackgrass; [6]): 30
Blackgrass plant response rating (blackgrass; [8]): 30
Wheat plant response rating (wheat; [6]): 20
Wheat plant response rating (wheat; [8]): 30
Oat, Wild plant response rating (wild oat; [6]): 30
Oat, Wild plant response rating (wild oat; [8]): 50
Rice plant response rating (rice): 90
Sedge, Umbrella plant response rating [2]: 80
Ducksalad plant response rating (ducksalad): 80
Barnyardgrass plant response rating (barnyardgrass [3]): 90

Reference: patent US20060069132A1, “Azolecarboxamide herbicides” (priority 2004, published 2006)
